# Measurements: ChEMBL document CHEMBL3885881, “DrugMatrix”
# Organism: Rattus norvegicus
# Assay: DrugMatrix - Regimen: Daily Repeat
# Format: toxicity, organism-based, Sprague-Dawley
# Design: regimen Daily Repeat, gender Male, age 6-8 weeks
# Details: in vivo, po, route oral GAVAGE, vehicle .5 % CMC; for ABSOLUTE BASOPHIL / ABSOLUTE EOSINOPHIL / ABSOLUTE LYMPHOCYTE / ABSOLUTE MONOCYTE / ABSOLUTE SEGMENTED NEUTROPHIL / BASOPHIL / EOSINOPHIL / ERYTHROCYTE COUNT / HEMATOCRIT / HEMOGLOBIN / LEUKOCYTE COUNT / LYMPHOCYTE / MEAN CORPUSCULAR HEMOGLOBIN / MEAN CORPUSCULAR HEMOGLOBIN CONCENTRATION / MEAN CORPUSCULAR VOLUME / MONOCYTE / NEUTROPHIL / NUCLEATED RED BLOOD CELLS / PLATELET COUNT: tissue Blood; for ALANINE AMINOTRANSFERASE / ALBUMIN / ALKALINE PHOSPHATASE / ASPARTATE AMINOTRANSFERASE / BLOOD UREA NITROGEN / CARBON DIOXIDE / CHLORIDE / CHOLESTEROL / CREATINE PHOSPHOKINASE / CREATININE / GLUCOSE / LACTATE DEHYDROGENASE / LIPASE / PHOSPHORUS / POTASSIUM / SODIUM / TOTAL BILIRUBIN / TOTAL PROTEIN / URIC ACID: tissue Plasma
# [1] = 0 mg/kg, 72 h, dose level Control, time 3 day
# [2] = 0 mg/kg, 120 h, dose level Control, time 5 day
# [3] = 88 mg/kg, 72 h, dose level Low, time 3 day
smiles,measurement,setting,value
CC(C)[C@H](N)C(=O)OCCOCn1cnc2c(=O)[nH]c(N)nc21 [VALACYCLOVIR],ABSOLUTE BASOPHIL,[1],0 CELLS/uL
same,ABSOLUTE EOSINOPHIL,[1],171.33 CELLS/uL
same,ABSOLUTE LYMPHOCYTE,[1],13776.5 CELLS/uL
same,ABSOLUTE MONOCYTE,[1],180.83 CELLS/uL
same,ABSOLUTE SEGMENTED NEUTROPHIL,[1],1121.33 CELLS/uL
same,BASOPHIL,[1],0%
same,EOSINOPHIL,[1],1%
same,ERYTHROCYTE COUNT,[1],5.56 x10E6/uL
same,HEMATOCRIT,[1],34.75%
same,HEMOGLOBIN,[1],13.68 G/DL
same,LEUKOCYTE COUNT,[1],15.25 x10E3/uL
same,LYMPHOCYTE,[1],90.17%
same,MEAN CORPUSCULAR HEMOGLOBIN,[1],24.6 pg
same,MEAN CORPUSCULAR HEMOGLOBIN CONCENTRATION,[1],39.4 G/DL
same,MEAN CORPUSCULAR VOLUME,[1],62.48 fL
same,MONOCYTE,[1],1.17%
same,NEUTROPHIL,[1],7.67%
same,NUCLEATED RED BLOOD CELLS,[1],0 /100WBC
same,PLATELET COUNT,[1],1342 x10E3/uL
same,ALANINE AMINOTRANSFERASE,[1],49.67 u/L
same,ALBUMIN,[1],4.15 G/DL
same,ALKALINE PHOSPHATASE,[1],346.83 u/L
same,ASPARTATE AMINOTRANSFERASE,[1],108.17 u/L
same,BLOOD UREA NITROGEN,[1],17.33 mg/dL
same,CARBON DIOXIDE,[1],25 mmol/L
same,CHLORIDE,[1],100.83 MEQ/L
same,CHOLESTEROL,[1],66.83 mg/dL
same,CREATINE PHOSPHOKINASE,[1],788 u/L
same,CREATININE,[1],0.18 mg/dL
same,GLUCOSE,[1],151.67 mg/dL
same,LACTATE DEHYDROGENASE,[1],982.5 u/L
same,LIPASE,[1],10.33 u/L
same,PHOSPHORUS,[1],11.23 mg/dL
same,POTASSIUM,[1],6.37 MEQ/L
same,SODIUM,[1],141.02 MEQ/L
same,TOTAL BILIRUBIN,[1],0.18 mg/dL
same,TOTAL PROTEIN,[1],5.9 G/DL
same,URIC ACID,[1],1.8 mg/dL
same,ABSOLUTE BASOPHIL,[2],0 CELLS/uL
same,ABSOLUTE EOSINOPHIL,[2],69 CELLS/uL
same,ABSOLUTE LYMPHOCYTE,[2],13632.83 CELLS/uL
same,ABSOLUTE MONOCYTE,[2],139.83 CELLS/uL
same,ABSOLUTE SEGMENTED NEUTROPHIL,[2],1225 CELLS/uL
same,BASOPHIL,[2],0%
same,EOSINOPHIL,[2],0.33%
same,ERYTHROCYTE COUNT,[2],5.52 x10E6/uL
same,HEMATOCRIT,[2],33.98%
same,HEMOGLOBIN,[2],13.22 G/DL
same,LEUKOCYTE COUNT,[2],15.07 x10E3/uL
same,LYMPHOCYTE,[2],90.83%
same,MEAN CORPUSCULAR HEMOGLOBIN,[2],23.95 pg
same,MEAN CORPUSCULAR HEMOGLOBIN CONCENTRATION,[2],38.9 G/DL
same,MEAN CORPUSCULAR VOLUME,[2],61.53 fL
same,MONOCYTE,[2],0.83%
same,NEUTROPHIL,[2],8%
same,NUCLEATED RED BLOOD CELLS,[2],0 /100WBC
same,PLATELET COUNT,[2],1196 x10E3/uL
same,ALANINE AMINOTRANSFERASE,[2],49.17 u/L
same,ALBUMIN,[2],4.2 G/DL
same,ALKALINE PHOSPHATASE,[2],352.33 u/L
same,ASPARTATE AMINOTRANSFERASE,[2],89.67 u/L
same,BLOOD UREA NITROGEN,[2],18 mg/dL
same,CARBON DIOXIDE,[2],27.67 mmol/L
same,CHLORIDE,[2],101 MEQ/L
same,CHOLESTEROL,[2],72.83 mg/dL
same,CREATINE PHOSPHOKINASE,[2],417.5 u/L
same,CREATININE,[2],0.18 mg/dL
same,GLUCOSE,[2],150.5 mg/dL
same,LACTATE DEHYDROGENASE,[2],517.33 u/L
same,LIPASE,[2],9 u/L
same,PHOSPHORUS,[2],11.87 mg/dL
same,POTASSIUM,[2],6.57 MEQ/L
same,SODIUM,[2],143.62 MEQ/L
same,TOTAL BILIRUBIN,[2],0.2 mg/dL
same,TOTAL PROTEIN,[2],6.08 G/DL
same,URIC ACID,[2],1.45 mg/dL
same,ABSOLUTE BASOPHIL,[3],0 CELLS/uL
same,ABSOLUTE EOSINOPHIL,[3],194 CELLS/uL
same,ABSOLUTE LYMPHOCYTE,[3],11636 CELLS/uL
same,ABSOLUTE MONOCYTE,[3],141 CELLS/uL
same,ABSOLUTE SEGMENTED NEUTROPHIL,[3],1129 CELLS/uL
same,BASOPHIL,[3],0%
same,EOSINOPHIL,[3],1.33%
same,ERYTHROCYTE COUNT,[3],5.5 x10E6/uL
same,HEMATOCRIT,[3],34.9%
same,HEMOGLOBIN,[3],13.63 G/DL
same,LEUKOCYTE COUNT,[3],13.1 x10E3/uL
same,LYMPHOCYTE,[3],89.33%
same,MEAN CORPUSCULAR HEMOGLOBIN,[3],24.77 pg
same,MEAN CORPUSCULAR HEMOGLOBIN CONCENTRATION,[3],39.07 G/DL
same,MEAN CORPUSCULAR VOLUME,[3],63.5 fL
same,MONOCYTE,[3],1%
same,NEUTROPHIL,[3],8.33%
same,NUCLEATED RED BLOOD CELLS,[3],0 /100WBC
same,PLATELET COUNT,[3],1139.67 x10E3/uL
